Results taken from patent US11040975B2, “Carbocyclic nucleoside reverse transcriptase inhibitors” (Merck Sharp & Dohme Corp., priority 2017, dated 2021).
Like-named read-outs stand apart in the source and are kept apart here.

Tests used:
[1] = target: T1, HIV-1 RT enzyme (Human immunodeficiency virus type 1 group M subtype B, UniProt P04585); assay: RT Polymerase Assay; format: biochemical
T1 construct: Full-length wild-type and 2 mutant RT proteins were expressed in Escherichia coli BL21(DE3) cells and purified; made in house; host or cells: Escherichia coli BL21(DE3)
Source text: The compounds of Formula I, and pharmaceutically acceptable salts thereof, are HIV reverse transcriptase inhibitors. The compounds are useful for inhibiting HIV reverse transcriptase and for inhibiting HIV replication in vitro and in vivo. More particularly, the compounds of Formula I inhibit the polymerase function of HIV-1 reverse transcriptase. The testing of compounds of the Examples of the invention in the assay set forth in the RT Polymerase Assay below, illustrates the ability of compounds of the invention to inhibit the RNA-dependent DNA polymerase activity of HIV-1 reverse transcriptase. The compounds of Formula I may also be useful agents against HIV-2.
Full-length wild-type and 2 mutant RT proteins were expressed in Escherichia coli BL21(DE3) cells and purified. Briefly, the heterodimeric nucleic acid substrate used in the HIV-1 RT polymerase reactions was generated by annealing biotinylated DNA primer to a 500 nucleotide RNA template. The HIV-1 RT enzyme (final concentration of 50 pM) was combined with an inhibitor compound or DMSO (10% DMSO in the final reaction mixture) in assay buffer (62.5 mM Tris-HCl, pH 7.8, 1.25 mM dithiothreitol, 7.5 mM MgCl2, 100 mM KCl, 0.03% CHAPS, 0.125 mM EGTA). This mixture was pre-incubated for 30 minutes at room temperature in microtiter plates. The polymerization reaction was initiated by the addition of template/primer substrate (final concentration: 16.6 nM) and dNTPs (final concentration: 2 μM dCTP, dGTP, dATP, and 66.6 nM Ru-dUTP). After 90 min of incubation at 37° C., reactions were quenched by the addition of EDTA (25 mM). The resulting mixture was incubated for an additional 5 minutes at room temperature followed by transferring the solution (50 μL) to blocked avidin plate from Meso Scale Discovery (MSD). The mixtures were incubated at room temperature for 60 min prior to the quantification of the reaction product via an ECL 6000 imager instrument.

[2] = system: HIV-1 (H9IIIB virus); assay: Viking assay: antiviral potency in a multiple round HIV-1 infection assay (MT4-GFP cells); format: cell-based; conditions: Human immunodeficiency virus 1, MT4-GFP cells, 10% normal human serum; inhibition of reproductive ratio R0; read-out: Viking, IC50 (10% NHS)
Procedure: Assessing Antiviral Potency in a Multiple Round HIV-1 Infection Assay.
HIV-1 replication was monitored using MT4-gag-GFP clone D3 (hereafter designate MT4-GFP), which are MT-4 cells modified to harbor a GFP reporter gene, the expression of which is dependent on the HIV-1 expressed proteins tat and rev. Productive infection of an MT4-GFP cell with HIV-1 results in GFP expression approximately 24h post-infection.
MT4-GFP cells were maintained at 37° C./5% CO2/90% relative humidity in RPMI 1640 supplemented with 10% fetal bovine serum, 100 U/mL penicillin/streptomycin, and 400 μg/mL G418 to maintain the reporter gene. For infections, MT4-GFP cells were placed in the same medium lacking G418 and infected overnight with H9IIIB virus at an approximate multiplicity of infection of 0.01 in the same incubation conditions. Cells were then washed and re-suspended in either RPMI 1640 containing 10% or 50% normal human serum at 1.6×10^5 cells/mL. Compound plates were prepared by dispensing compounds dissolved in DMSO into wells of 384 well poly D lysine-coated plates ([…]) using an ECHO acoustic dispenser. Each compound was tested in a 10 point serial 3-fold dilution (typical final concentrations: 8.4 μM-0.43 nM). Controls included no inhibitor (DMSO only) and a combination of three antiviral agents (efavirenz, indinavir, and an integrase strand transfer inhibitor at final concentrations of 4 μM each). Cells were added (50 μL/well) to compound plates and the infected cells were maintained at 37° C./5% CO2/90% relative humidity.
Infected cells were quantified at two time points, ˜48h and ˜72h post-infection, by counting the number of green cells in each well using an Acumen eX3 scanner. The increase in the number of green cells over ˜24h period gives the reproductive ratio, R0, which is typically 5-15 and has been shown experimentally to be in logarithmic phase (data not shown). Inhibition of R0 is calculated for each well, and IC50s determined by non-linear 4-parameter curve fitting.

[3] = HIV-1 RT 50 pM, 90 min at 37° C., triphosphates tested, read-out: dNTP IC50

Compound | IC50 [1, 3] [pM] | IC50 [2] [µM] | further results
N#CC1(COP(=O)(O)OP(=O)(O)OP(=O)(O)O)CC(n2cnc3c(=O)[nH]c(N)nc32)CC1O (racemic) [Example (+/−) 75, ((1S,2S,4R)-4-(2-amino-6-oxo-1,6-dihydro-9H-purin-9-yl)-1-cyano-2-hydroxycyclopentyl)methyl tetrahydrogen triphosphate and ((1R,2R,4S)-4-(2-amino-6-oxo-1,6-dihydro-9H-purin-9-yl)-1-cyano-2-hydroxycyclopentyl)methyl tetrahydrogen triphosphate] | – | – | IC50 [1]: 444000 pM
((1S,2S,4R)-4-(2-amino-6-chloro-9H-purin-9-yl)-1-ethynyl-2-hydroxycyclopentyl)methyl tetrahydrogen triphosphate and ((1R,2R,4S)-4-(2-amino-6-chloro-9H-purin-9-yl)-1-ethynyl-2-hydroxycyclopentyl)methyl tetrahydrogen triphosphate [Example (+/−) 42] | 1.32e+07 | – | –
((1S,2S,4R)-4-(6-amino-2-fluoro-9H-purin-9-yl)-1-ethynyl-2-hydroxycyclopentyl)methyl tetrahydrogen triphosphate and ((1R,2R,4S)-4-(6-amino-2-fluoro-9H-purin-9-yl)-1-ethynyl-2-hydroxycyclopentyl)methyl tetrahydrogen triphosphate [Example (+/−) 41] | 3.46e+06 | – | –
Cc1cn(C2CC(O)C(C#N)(COP(=O)(O)OP(=O)(O)OP(=O)(O)O)C2)c(=O)[nH]c1=O (racemic) [Example (+/−) 76, ((1S,2S,4R)-1-cyano-2-hydroxy-4-(5-methyl-2,4-dioxo-3,4-dihydropyrimidin-1(2H)-yl)cyclopentyl)methyl tetrahydrogen triphosphate and ((1R,2R,4S)-1-cyano-2-hydroxy-4-(5-methyl-2,4-dioxo-3,4-dihydropyrimidin-1(2H)-yl)cyclopentyl)methyl tetrahydrogen triphosphate] | – | – | IC50 [1]: 523000 pM
((1S,2S,4R)-4-(2,6-dichloro-9H-purin-9-yl)-1-ethynyl-2-hydroxycyclopentyl)methyl tetrahydrogen triphosphate and ((1R,2R,4S)-4-(2,6-dichloro-9H-purin-9-yl)-1-ethynyl-2-hydroxycyclopentyl)methyl tetrahydrogen triphosphate [Example (+/−) 43] | > 1e+08 | – | –
C#C[C@]1(CO)C[C@@H](n2ccc3c(Cl)nc(Cl)nc32)C[C@@H]1O (racemic) [Example (+/−) 21, (1S,2S,4R)-4-(2,4-dichloro-7H-pyrrol[2,3-d]pyrimidin-7-yl)-2-ethynyl-2-(hydroxymethyl)cyclopentan-1-ol and (1R,2R,4S)-4-(2,4-dichloro-7H-pyrrolo[2,3-d]pyrimidin-7-yl)-2-ethynyl-2-(hydroxymethyl)cyclopentan-1-ol] | – | > 42 | –
C#C[C@]1(CO)C[C@@H](n2cnc3c(OCC)nc(N)nc32)C[C@@H]1O (racemic) [Example (+/−) 30, (1S,2S,4R)-4-(2-amino-6-ethoxy-9H-purin-9-yl)-2-ethynyl-2-(hydroxymethyl)cyclopentan-1-ol and (1R,2R,4S)-4-(2-amino-6-ethoxy-9H-purin-9-yl)-2-ethynyl-2-(hydroxymethyl)cyclopentan-1-ol] | – | 0.614 | –
C#C[C@]1(CO[P@@](=O)(N[C@@H](C)C(=O)OC(C)C)Oc2ccccc2)C[C@@H](n2cnc3c(OCC)nc(N)nc32)C[C@@H]1O (mixture of isomers) [Example 39A and 39B, Isopropyl ((S)-(((1S,2S,4R)-4-(2-amino-6-ethoxy-9H-purin-9-yl)-1-ethynyl-2-hydroxycyclopentyl)methoxy)(phenoxy)phosphoryl)-L-alaninate and Isopropyl ((S)-(((1R,2R,4S)-4-(2-amino-6-ethoxy-9H-purin-9-yl)-1-ethynyl-2-hydroxycyclopentyl)methoxy)(phenoxy)phosphoryl)-L-alaninate] | – | 0.0271 | –
